# In US5430062A, “Stilbene derivatives as anticancer agents” (priority 1993, dated 1995):
# Counter-ions that a name gives are not always drawn. Like-named read-outs stand apart in the source and are kept apart here.
# Legend:
# tubulin [1] = experiment: Inhibition of tubulin polymerization (turbidimetry); format: biochemical, bovine
# M14 melanoma = experiment: Cytotoxicity, M14
# SF-295 CNS cancer = experiment: Cytotoxicity, SF-295; conditions: read-out: cytotoxicity GI50, SF-295, 50% growth inhibition, average of two determinations, 8640 min
# CAKI-1 renal cancer = experiment: Cytotoxicity, CAKI-1
# [2] = test system: DMS 273 small cell lung cancer; experiment: Cytotoxicity, DMS 273; conditions: read-out: cytotoxicity GI50, DMS 273, 50% growth inhibition, average of two determinations, 8640 min
# OVCAR-3 ovarian cancer = experiment: Cytotoxicity, OVCAR-3
# COLO 205 colon cancer = experiment: Cytotoxicity, COLO 205; conditions: read-out: cytotoxicity GI50, COLO 205, 50% growth inhibition, average of two determinations, 8640 min
# HL-60 (TB) leukemia = experiment: Cytotoxicity, HL-60(TB) leukemia; conditions: read-out: cytotoxicity GI50, HL-60(TB), 50% growth inhibition, average of two determinations, 8640 min
# tubulin [3] = experiment: Inhibition of [3H]colchicine binding to tubulin (DEAE-filter); set-up: species or system bovine
# tubulin [4] = conditions: cited from earlier work
# MLM melanoma = experiment: MTT cytotoxicity assay, MLM; conditions: […], read-out: Cytotoxicity ED50, MLM
# A-549 lung carcinoma = experiment: MTT cytotoxicity assay, A-549; conditions: Homo sapiens, A549, […], read-out: Cytotoxicity ED50, A-549
# MCF-7 breast carcinoma = experiment: MTT cytotoxicity assay, MCF-7; conditions: Homo sapiens, MCF7, […], read-out: Cytotoxicity ED50, MCF-7
# [5] = test system: HT-29 colon adenocarcinoma; experiment: MTT cytotoxicity assay, HT-29; conditions: Homo sapiens, HT-29, […], read-out: Cytotoxicity ED50, HT-29
# [6] = Stability in DMSO solution at room temperature (NMR); format: physicochemical; conditions: protected from light, read-out: formation of the cis isomer (1a)
# Protocol: The cytotoxic compounds gave reproducible results in the tubulin polymerization assay with the exception of the trans stilbenes 1b and 6n. […] The cytotoxic properties of these two agents may similarly result from chemical changes in solution. […] The ratio of 6n:5n was 1:1 after 24 hours of the dissolution of pure 6n in DMSO at room temperature.
# [7] = Table X, different glutamate preparation (1M monosodium glutamate and GTP), read-out: inhibn of tubulin polymn IC50 (±SD)
# [8] = benzylanilines, Table X series, read-out: tubulin polymerization IC50
# [9] = read-out: cytotoxicity GI50, M14, 50% growth inhibition, average of two determinations, 8640 min
# [10] = read-out: cytotoxicity GI50, CAKI-1; 50% growth inhibition; average of two determinations; 8640 min
# [11] = read-out: cytotoxicity GI50, OVCAR-3, 50% growth inhibition, average of two determinations, 8640 min
# [12] = Table X, different glutamate preparation (1M monosodium glutamate and GTP), Hydrochloride, read-out: inhibn of tubulin polymn IC50 (±SD)
# [13] = read-out: cytotoxicity GI50, M14, 50% growth inhibition, average of two determinations, 8640 min, Hydrochloride
# [14] = read-out: cytotoxicity GI50, CAKI-1, 50% growth inhibition, average of two determinations, 8640 min, Hydrochloride
# [15] = read-out: cytotoxicity GI50, OVCAR-3, 50% growth inhibition, average of two determinations, 8640 min, Hydrochloride
# [16] = read-out: cytotoxicity GI50, M14; 50% growth inhibition; average of two determinations; 8640 min
# [17] = read-out: cytotoxicity GI50, OVCAR-3; 50% growth inhibition; average of two determinations; 8640 min
# [18] = read-out: cytotoxicity GI50, CAKI-1, 50% growth inhibition, average of two determinations, 8640 min
SMILES,IC50 (tubulin [1]; [7]),IC50 (tubulin [1]; [8]),GI50 (SF-295 CNS cancer),GI50 (CAKI-1 renal cancer; [10]),GI50 [2],GI50 (COLO 205 colon cancer),GI50 (HL-60 (TB) leukemia),GI50 (M14 melanoma; [16]),GI50 (OVCAR-3 ovarian cancer; [17]),also measured
"CCc1ccc(NCc2cc(OC)c(OC)c(OC)c2)cc1 [109b, 4-Ethyl-N-(3,4,5-trimethoxybenzyl)aniline]",3000 nM,3000 nM,266 nM,354 nM,135 nM,344 nM,168 nM,–,–,GI50 (M14 melanoma; [9]): 315 nM; GI50 (OVCAR-3 ovarian cancer; [11]): 283 nM
"CCOc1ccc(NCc2cc(OC)c(OC)c(OC)c2)cc1 [110d, 4-Ethoxy-N-(3,4,5-trimethoxybenzyl)aniline Hydrochloride]",–,11000 nM,–,–,–,–,–,–,–,IC50 (tubulin [1]; [12]): 11000 nM; GI50 (M14 melanoma; [13]): 532 nM; GI50 (SF-295 CNS cancer; Hydrochloride): 418 nM; GI50 (CAKI-1 renal cancer; [14]): 1050 nM; GI50 ([2]; Hydrochloride): 961 nM; GI50 (OVCAR-3 ovarian cancer; [15]): 464 nM; GI50 (COLO 205 colon cancer; Hydrochloride): 538 nM; GI50 (HL-60 (TB) leukemia; Hydrochloride): 448 nM
"COc1cc(C=Nc2ccc(C(C)C)cc2)cc(OC)c1OC [108f, 4-Isopropyl-N-(3,4,5-trimethoxybenzylidene)aniline]",> 40000 nM,–,> 100000 nM,> 100000 nM,52500 nM,> 100000 nM,> 100000 nM,> 100000 nM,> 100000 nM,–
"COc1ccc(N=Cc2cc(OC)c(OC)c(OC)c2)cc1 [108c, 4-Methoxy-N-(3,4,5-trimethoxybenzylidene)aniline]",> 40000 nM,–,–,> 100000 nM,33000 nM,–,–,–,> 100000 nM,–
"COc1ccc(NCc2cc(OC)c(OC)c(OC)c2)cc1 [109c, 4-Methoxy-N-(3,4,5-trimethoxybenzyl)aniline]",4600 nM,–,266 nM,–,141 nM,235 nM,115 nM,–,–,GI50 (CAKI-1 renal cancer; [18]): 458 nM; GI50 (OVCAR-3 ovarian cancer; [11]): 363 nM
"COc1cc(CNc2ccc(SC)cc2)cc(OC)c1OC [109e, 4-Methylthio-N-(3,4,5-trimethoxybenzyl)aniline]",> 40000 nM,–,7280 nM,–,3090 nM,3880 nM,3700 nM,–,–,GI50 (M14 melanoma; [9]): 5260 nM; GI50 (CAKI-1 renal cancer; [18]): 32000 nM; GI50 (OVCAR-3 ovarian cancer; [11]): 5930 nM
"CCOc1ccc(N=Cc2cc(OC)c(OC)c(OC)c2)cc1 [108d, 4-Ethoxy-N-(3,4,5-trimethoxybenzylidene)aniline]",> 40000 nM,–,> 100000 nM,> 100000 nM,> 100000 nM,–,> 100000 nM,> 100000 nM,> 100000 nM,–
"COc1ccc(/C=C\c2cc(OC)c(OC)c(OC)c2)cc1O [compound 1a, reference compound]",–,–,–,–,–,–,–,–,–,inhibition of colchicine binding (in words) (tubulin [3]): nearly total inhibition of colchicine binding; competitive inhibition of colchicine binding (tubulin [4]): competitively inhibit the binding of radiolabeled colchicine to tubulin; IC50 (MLM melanoma): 0.014 nM; IC50 (A-549 lung carcinoma): 0.0012 nM; IC50 (MCF-7 breast carcinoma): 0.0038 nM; IC50 [5]: 0.012 nM
"CCOc1ccc(NCc2cc(OC)c(OC)c(OC)c2)cc1 [109d, 4-Ethoxy-N-(3,4,5-trimethoxybenzyl)aniline]",12000 nM,–,274 nM,2040 nM,296 nM,432 nM,296 nM,–,–,GI50 (M14 melanoma; [9]): 403 nM; GI50 (OVCAR-3 ovarian cancer; [11]): 340 nM
"COc1ccc(NCc2cc(OC)c(OC)c(OC)c2)cc1 [110c, 4-Methoxy-N-(3,4,5-trimethoxybenzyl)aniline Hydrochloride]",–,8900 nM,–,–,–,–,–,2380 nM,–,IC50 (tubulin [1]; [12]): 8900 nM; GI50 (SF-295 CNS cancer; Hydrochloride): 2320 nM; GI50 (CAKI-1 renal cancer; [14]): 2500 nM; GI50 ([2]; Hydrochloride): 534 nM; GI50 (OVCAR-3 ovarian cancer; [15]): 1960 nM; GI50 (COLO 205 colon cancer; Hydrochloride): 1660 nM; GI50 (HL-60 (TB) leukemia; Hydrochloride): 834 nM
"COc1cc(CNc2ccc(C)cc2)cc(OC)c1OC [109a, 4-Methyl-N-(3,4,5-trimethoxybenzyl)aniline]",6000 nM,6000 nM,163 nM,–,92.6 nM,152 nM,122 nM,–,–,GI50 (M14 melanoma; [9]): 150 nM
"COc1ccc(/C=C/c2cc(OC)c(OC)c(OC)c2)cc1O [compound 1b, reference compound]",–,–,–,–,–,–,–,–,–,degraded at […] ([6]; four weeks): ~10%; degraded at 336 h ([6]; two weeks): ~3%
"CCCc1ccc(N=Cc2cc(OC)c(OC)c(OC)c2)cc1 [108g, 4-n-Propyl-N-(3,4,5-trimethoxybenzylidene)aniline]",> 40000 nM,–,> 100000 nM,> 100000 nM,> 100000 nM,> 100000 nM,22600 nM,> 100000 nM,> 100000 nM,–
"COc1cc(CNc2ccc(SC)cc2)cc(OC)c1OC [110e, 4-Methylthio-N-(3,4,5-trimethoxybenzyl)aniline Hydrochloride]",–,16000 nM,–,–,–,–,–,–,–,IC50 (tubulin [1]; [12]): 16000 nM; GI50 (M14 melanoma; [13]): 4840 nM; GI50 (SF-295 CNS cancer; Hydrochloride): 3410 nM; GI50 (CAKI-1 renal cancer; [14]): 16300 nM; GI50 ([2]; Hydrochloride): 4910 nM; GI50 (OVCAR-3 ovarian cancer; [15]): 4850 nM; GI50 (COLO 205 colon cancer; Hydrochloride): 3600 nM; GI50 (HL-60 (TB) leukemia; Hydrochloride): 3290 nM
"CCc1ccc(NCc2cc(OC)c(OC)c(OC)c2)cc1 [110b, 4-Ethyl-N-(3,4,5-trimethoxybenzyl)aniline Hydrochloride]",–,–,–,–,–,–,–,–,–,"IC50 (tubulin [1]; [12]): 7200 nM; IC50 (tubulin [1]; benzylanilines, Table X series, Hydrochloride, read-out: tubulin polymerization IC50): 7200 nM; GI50 (M14 melanoma; [13]): 437 nM; GI50 (SF-295 CNS cancer; Hydrochloride): 339 nM; GI50 ([2]; Hydrochloride): 818 nM; GI50 (OVCAR-3 ovarian cancer; [15]): 405 nM; GI50 (COLO 205 colon cancer; Hydrochloride): 352 nM; GI50 (HL-60 (TB) leukemia; Hydrochloride): 245 nM"
"CCc1ccc(N=Cc2cc(OC)c(OC)c(OC)c2)cc1 [108b, 4-Ethyl-N-(3,4,5-trimethoxybenzylidene)aniline]",> 40000 nM,–,> 100000 nM,> 100000 nM,> 100000 nM,–,–,> 100000 nM,> 100000 nM,–
